This is an account of results in patent US20120219615A1, “Therapeutic Use of a TLR Agonist and Combination Therapy” (The Trustees of the University of Pennsylvania, priority 2010, published 2012).

pEC50: −log10 of the molar value.

Common to all, as to format: cell-based
One experiment addresses T1, TLR8 (Homo sapiens, UniProt Q9NR97).
T1 construct: assessed in peripheral blood mononuclear cells (PBMCs) from 15 healthy donors; endogenous in cells; host or cells: PBMCs from 15 healthy donors
T1 sequence (Q9NR97 27-1041): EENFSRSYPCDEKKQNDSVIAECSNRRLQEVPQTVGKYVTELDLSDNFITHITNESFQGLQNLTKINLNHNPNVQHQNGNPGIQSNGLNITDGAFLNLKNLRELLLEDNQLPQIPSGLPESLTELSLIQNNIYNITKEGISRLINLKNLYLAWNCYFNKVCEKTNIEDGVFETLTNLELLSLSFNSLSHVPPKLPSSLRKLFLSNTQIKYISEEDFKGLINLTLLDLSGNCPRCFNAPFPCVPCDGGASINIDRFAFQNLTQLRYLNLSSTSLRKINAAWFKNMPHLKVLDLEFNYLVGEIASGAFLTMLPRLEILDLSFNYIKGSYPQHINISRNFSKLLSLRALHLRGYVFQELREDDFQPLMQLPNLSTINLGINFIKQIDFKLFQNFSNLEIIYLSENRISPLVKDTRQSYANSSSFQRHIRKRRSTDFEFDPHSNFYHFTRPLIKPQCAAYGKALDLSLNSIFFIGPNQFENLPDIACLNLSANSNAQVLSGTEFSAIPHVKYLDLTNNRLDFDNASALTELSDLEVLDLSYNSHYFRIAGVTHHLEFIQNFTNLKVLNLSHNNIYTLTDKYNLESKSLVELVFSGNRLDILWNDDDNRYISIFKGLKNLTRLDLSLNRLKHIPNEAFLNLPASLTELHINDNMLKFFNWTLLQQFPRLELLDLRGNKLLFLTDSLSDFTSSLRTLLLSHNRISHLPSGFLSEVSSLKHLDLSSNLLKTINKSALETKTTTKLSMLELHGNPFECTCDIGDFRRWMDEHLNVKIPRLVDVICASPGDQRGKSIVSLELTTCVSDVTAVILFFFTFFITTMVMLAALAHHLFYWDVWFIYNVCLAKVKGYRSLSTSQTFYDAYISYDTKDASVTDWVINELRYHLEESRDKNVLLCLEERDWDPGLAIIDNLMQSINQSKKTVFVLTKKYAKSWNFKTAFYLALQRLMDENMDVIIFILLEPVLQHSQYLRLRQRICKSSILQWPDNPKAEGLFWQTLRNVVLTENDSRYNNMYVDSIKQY
Put plainly: HEK293 cells transfected with TLR8 and NF-κB driven reporter gene. The conditions noted are these: HEK293 transfectants. The method, then: (§1) The half-maximal effective concentration (EC50) for VTX-2337 activation of TLR8 and TLR7 was assessed in peripheral blood mononuclear cells (PBMCs) from 15 healthy donors and also in HEK293 cells transfected with TLR8 or TLR7 and an NF-κB driven reporter gene. […] Also it was observed that VTX-2337 had no activity on TLR2, TLR3, TLR4, TLR5, TLR6, or TLR9 at concentrations up to 25 μM.
Background: In a reporter assay the amount or activity of a reporter protein is the signal.

The next experiment has as its target T2, TLR7 (Homo sapiens, UniProt Q9NYK1).
T2 construct: expressed in transfected cells; host or cells: HEK293
T2 sequence (Q9NYK1 27-1049): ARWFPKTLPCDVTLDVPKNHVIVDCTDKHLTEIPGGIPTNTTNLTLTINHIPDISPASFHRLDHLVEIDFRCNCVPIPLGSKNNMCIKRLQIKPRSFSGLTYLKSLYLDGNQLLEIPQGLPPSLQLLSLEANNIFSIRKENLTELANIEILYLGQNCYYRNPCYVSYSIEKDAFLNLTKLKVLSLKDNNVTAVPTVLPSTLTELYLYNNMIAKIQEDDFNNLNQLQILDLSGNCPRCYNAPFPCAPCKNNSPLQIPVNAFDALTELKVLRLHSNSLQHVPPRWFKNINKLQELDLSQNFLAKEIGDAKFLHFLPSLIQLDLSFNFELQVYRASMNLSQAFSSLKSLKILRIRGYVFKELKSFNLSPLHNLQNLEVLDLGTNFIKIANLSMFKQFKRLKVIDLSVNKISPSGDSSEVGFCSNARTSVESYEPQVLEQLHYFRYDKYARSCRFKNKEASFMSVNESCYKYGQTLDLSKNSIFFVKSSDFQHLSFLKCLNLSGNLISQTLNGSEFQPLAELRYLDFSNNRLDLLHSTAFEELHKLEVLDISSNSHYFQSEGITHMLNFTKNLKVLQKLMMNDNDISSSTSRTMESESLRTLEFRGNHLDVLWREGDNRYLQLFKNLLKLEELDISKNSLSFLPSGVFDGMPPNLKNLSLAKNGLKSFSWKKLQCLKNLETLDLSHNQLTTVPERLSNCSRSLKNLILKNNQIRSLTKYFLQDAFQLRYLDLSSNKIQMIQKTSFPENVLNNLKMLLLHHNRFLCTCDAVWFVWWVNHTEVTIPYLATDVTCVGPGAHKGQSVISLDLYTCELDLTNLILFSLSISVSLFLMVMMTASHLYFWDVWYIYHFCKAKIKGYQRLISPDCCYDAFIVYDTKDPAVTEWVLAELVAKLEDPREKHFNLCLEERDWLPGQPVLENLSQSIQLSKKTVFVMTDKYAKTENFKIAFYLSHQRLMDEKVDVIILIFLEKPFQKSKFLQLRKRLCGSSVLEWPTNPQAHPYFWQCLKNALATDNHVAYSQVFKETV
Put plainly: HEK293 cells transfected with TLR7 and NF-κB driven reporter gene. Conditions: HEK293 transfectants. The protocol: as §1

For a further experiment, the target named is TLR4 (Homo sapiens, UniProt O00206+Q9Y6Y9). Put plainly: Activity on TLR4. The conditions noted are these: concentrations up to 25 μM. The protocol:
as §1

Another experiment concerns the target TLR5 (Homo sapiens, UniProt O60602). Kind of experiment: Activity on TLR5. Conditions: concentrations up to 25 μM. The protocol: as §1
A further experiment deals with TLR6 (Homo sapiens, UniProt O60603+Q9Y2C9). Put plainly: Activity on TLR6. The conditions noted are these: concentrations up to 25 μM. The method, then: as §1
Sequence of TLR6 (Q9Y2C9 32-796, species assumed): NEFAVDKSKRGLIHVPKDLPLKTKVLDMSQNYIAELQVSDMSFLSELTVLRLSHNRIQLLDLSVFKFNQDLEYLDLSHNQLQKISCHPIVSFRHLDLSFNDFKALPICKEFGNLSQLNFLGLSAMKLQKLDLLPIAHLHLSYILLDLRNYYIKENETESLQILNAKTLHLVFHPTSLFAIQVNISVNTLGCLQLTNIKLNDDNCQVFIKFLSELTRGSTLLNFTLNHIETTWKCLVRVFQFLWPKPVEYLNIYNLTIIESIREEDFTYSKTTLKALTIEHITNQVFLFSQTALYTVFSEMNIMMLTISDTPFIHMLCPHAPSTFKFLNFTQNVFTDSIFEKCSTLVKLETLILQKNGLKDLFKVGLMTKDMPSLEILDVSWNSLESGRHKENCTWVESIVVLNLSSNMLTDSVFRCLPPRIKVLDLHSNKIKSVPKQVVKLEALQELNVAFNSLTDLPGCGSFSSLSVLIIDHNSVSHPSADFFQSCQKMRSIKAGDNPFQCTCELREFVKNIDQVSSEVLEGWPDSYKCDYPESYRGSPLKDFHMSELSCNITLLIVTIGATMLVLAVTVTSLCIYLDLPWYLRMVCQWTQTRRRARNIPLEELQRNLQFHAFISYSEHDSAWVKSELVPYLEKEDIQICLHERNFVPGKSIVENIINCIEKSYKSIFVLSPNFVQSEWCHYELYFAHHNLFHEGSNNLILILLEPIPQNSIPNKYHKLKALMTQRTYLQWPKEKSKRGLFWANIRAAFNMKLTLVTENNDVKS
Sequence of TLR6 (O60603 21-784, species assumed): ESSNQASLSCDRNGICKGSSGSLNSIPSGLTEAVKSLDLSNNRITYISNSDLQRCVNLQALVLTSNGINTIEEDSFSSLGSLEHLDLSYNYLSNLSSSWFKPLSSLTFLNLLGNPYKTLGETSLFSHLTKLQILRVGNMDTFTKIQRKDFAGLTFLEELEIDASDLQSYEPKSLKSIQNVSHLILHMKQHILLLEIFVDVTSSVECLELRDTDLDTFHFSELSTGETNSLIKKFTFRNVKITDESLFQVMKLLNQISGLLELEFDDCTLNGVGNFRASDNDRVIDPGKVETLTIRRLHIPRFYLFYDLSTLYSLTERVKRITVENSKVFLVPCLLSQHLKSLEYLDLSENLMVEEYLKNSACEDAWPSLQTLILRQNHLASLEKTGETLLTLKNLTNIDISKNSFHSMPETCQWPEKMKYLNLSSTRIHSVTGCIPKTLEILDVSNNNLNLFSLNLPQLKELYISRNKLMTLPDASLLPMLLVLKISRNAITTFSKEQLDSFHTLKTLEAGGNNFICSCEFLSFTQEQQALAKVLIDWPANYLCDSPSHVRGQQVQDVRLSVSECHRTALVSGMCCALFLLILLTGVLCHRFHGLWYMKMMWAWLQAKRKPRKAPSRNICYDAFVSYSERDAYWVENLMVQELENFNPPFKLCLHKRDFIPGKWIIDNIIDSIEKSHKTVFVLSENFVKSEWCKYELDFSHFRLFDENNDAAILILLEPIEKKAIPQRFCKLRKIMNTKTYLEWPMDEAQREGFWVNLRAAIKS

Sequence of TLR5 (O60602 21-858, species assumed): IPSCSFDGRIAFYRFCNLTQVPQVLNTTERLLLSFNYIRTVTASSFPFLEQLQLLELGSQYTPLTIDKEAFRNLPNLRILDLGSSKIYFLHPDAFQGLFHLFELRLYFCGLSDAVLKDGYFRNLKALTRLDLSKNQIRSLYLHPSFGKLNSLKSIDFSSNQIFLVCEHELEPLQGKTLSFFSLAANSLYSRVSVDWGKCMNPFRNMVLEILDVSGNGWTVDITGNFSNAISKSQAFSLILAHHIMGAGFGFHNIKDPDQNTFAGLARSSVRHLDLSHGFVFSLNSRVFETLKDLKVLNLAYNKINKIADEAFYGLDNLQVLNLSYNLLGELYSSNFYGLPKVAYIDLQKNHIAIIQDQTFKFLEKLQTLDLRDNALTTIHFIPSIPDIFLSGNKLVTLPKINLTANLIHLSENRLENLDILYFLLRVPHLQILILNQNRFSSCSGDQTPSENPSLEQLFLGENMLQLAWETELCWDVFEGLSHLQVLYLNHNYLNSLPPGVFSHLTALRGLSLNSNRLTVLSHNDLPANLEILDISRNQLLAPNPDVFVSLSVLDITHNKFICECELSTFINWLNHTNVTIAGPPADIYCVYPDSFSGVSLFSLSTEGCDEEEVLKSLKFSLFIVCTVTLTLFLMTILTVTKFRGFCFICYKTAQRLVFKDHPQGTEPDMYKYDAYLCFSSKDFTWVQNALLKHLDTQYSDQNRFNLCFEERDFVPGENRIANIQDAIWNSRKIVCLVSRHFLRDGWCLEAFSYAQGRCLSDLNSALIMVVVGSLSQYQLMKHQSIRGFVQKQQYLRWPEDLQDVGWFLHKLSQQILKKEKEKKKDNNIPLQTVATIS
Sequence of TLR4 (O00206 24-839, species assumed): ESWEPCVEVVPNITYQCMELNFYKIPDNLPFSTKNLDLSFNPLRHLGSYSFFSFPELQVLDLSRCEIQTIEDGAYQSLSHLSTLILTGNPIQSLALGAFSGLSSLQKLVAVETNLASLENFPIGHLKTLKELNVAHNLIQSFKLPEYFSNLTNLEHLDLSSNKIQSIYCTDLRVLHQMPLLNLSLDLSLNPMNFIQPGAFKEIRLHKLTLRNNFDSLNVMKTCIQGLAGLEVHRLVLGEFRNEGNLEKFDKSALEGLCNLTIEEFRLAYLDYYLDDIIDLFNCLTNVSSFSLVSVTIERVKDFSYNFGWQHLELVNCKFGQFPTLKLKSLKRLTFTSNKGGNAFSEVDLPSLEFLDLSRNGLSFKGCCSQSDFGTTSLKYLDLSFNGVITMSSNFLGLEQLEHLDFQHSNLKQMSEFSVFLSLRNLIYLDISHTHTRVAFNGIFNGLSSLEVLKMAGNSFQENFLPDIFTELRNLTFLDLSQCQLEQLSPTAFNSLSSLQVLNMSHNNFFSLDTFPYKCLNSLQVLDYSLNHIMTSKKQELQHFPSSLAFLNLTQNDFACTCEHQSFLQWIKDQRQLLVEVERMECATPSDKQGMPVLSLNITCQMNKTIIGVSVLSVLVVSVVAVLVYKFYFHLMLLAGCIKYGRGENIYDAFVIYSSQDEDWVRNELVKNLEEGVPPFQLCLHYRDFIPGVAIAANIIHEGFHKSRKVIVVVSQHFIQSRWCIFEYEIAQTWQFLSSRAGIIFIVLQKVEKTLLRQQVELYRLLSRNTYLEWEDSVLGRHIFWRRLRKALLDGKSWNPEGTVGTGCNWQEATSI
Sequence of TLR4 (Q9Y6Y9 17-160 limits assumed, species assumed): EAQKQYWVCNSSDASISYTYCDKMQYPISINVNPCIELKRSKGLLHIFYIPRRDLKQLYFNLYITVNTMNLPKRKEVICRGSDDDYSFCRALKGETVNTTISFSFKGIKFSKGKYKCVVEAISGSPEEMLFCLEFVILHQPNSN

One may read the pEC50 as −log10 of the EC50, conventionally taken in molar units. A low value points to a large EC50. On to `CCCN(CCC)C(=O)C1=Cc2ccc(-c3ccc(C(=O)N4CCCC4)cc3)cc2N=C(N)C1` [VTX-2337, 2-amino-N,N-dipropyl-8-(4-(pyrrolidine-1-carbonyl)phenyl)-3H-benzo[b]azepine-4-carboxamide], for which the negative logarithm of the EC50 (pEC50) on TLR8 is 7.15; on TLR7 it was 5.70. On TLR4, the “activity on TLR4” value is “no activity”. Moreover, at TLR5, the “activity on TLR5” value was “no activity”. Besides, the “activity on TLR6” value on TLR6 is listed as “no activity”.
